Reference: patent US7053078B2, “Serine protease inhibitors” (Eli Lilly and Company, priority 2000, dated 2006)

Row | melting point [°C] | Structure (SMILES)
1 | 239 to 243 | COc1ccc(C(=O)N[C@@H](CNC(=O)C2CCN(C3CCCCC3)CC2)c2ccccc2)cc1
2 | 253 to 257 | COc1ccc(C(=O)N[C@@H](CNC(=O)C2CCN(C3CCCC3)CC2)c2ccccc2)cc1
3 | 252 to 259 | COc1ccc(C(=O)N[C@@H](CNC(=O)C2CCN(C3CCN(C)CC3)CC2)c2ccccc2)cc1
4 | 245 to 251 | CCN1CCC(C(=O)NC[C@H](NC(=O)c2ccc(OC)cc2)c2ccccc2)CC1
